Results on 1 compound are retold here after patent EP2759295A1, “Foam cell specific Liver X Receptor (LXR) alpha agonist, SIRT1 inhibitors as well as p300 inhibitors as pharmaceutically active agents” (Max-Planck-Gesellschaft zur Förderung der Wissenschaften …, priority 2013, dated 2014).

Series [1] has as its target T1, LXRα ligand binding domain (LBD) (Homo sapiens, UniProt Q13133).
T1 construct: expressed in transfected cells; host or cells: HEK-293
T1 sequence (Q13133 164-447): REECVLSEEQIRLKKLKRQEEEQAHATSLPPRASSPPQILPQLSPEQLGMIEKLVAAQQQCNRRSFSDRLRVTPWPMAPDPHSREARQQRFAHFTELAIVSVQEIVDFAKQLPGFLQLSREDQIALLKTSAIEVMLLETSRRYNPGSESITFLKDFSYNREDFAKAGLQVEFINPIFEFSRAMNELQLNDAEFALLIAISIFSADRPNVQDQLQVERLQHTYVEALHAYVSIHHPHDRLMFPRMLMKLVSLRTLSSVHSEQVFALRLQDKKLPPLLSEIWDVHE
Nature of the series: dual luciferase reporter gene assay with LXRα ligand binding domain in HEK-293 cells. It counts as cell-based. On the procedure:
The ligand binding domain (LBD) of LXRα (amino acids 164 to 447) or LXRβ (amino acids 154 to 461) was cloned into pBIND [Renilla/Amp] vector (Promega). Selection and amplification were performed in E-coli cells. Purification of the plasmids was performed with a plasmid purification kit (Qiagen). For transfection HEK-293 cells were plated in 96-well plates (TPP) at a density of 3.5 x 10^4 cells/well for 24 h. To investigate the ligand binding on LXRα ligand binding domain, 0.04 ng of renilla luciferase coding plasmide pGL4.75 (Promega), 0.04 ng of LXRα-LBD/GAL4-DBD plasmide and 80 ng of firefly luciferase coding plasmide pGL4.31 (Promega) were used in a total volume of 200 µL for each well. In LXRβ binding assay 40 ng of LXRβ-LBD/GAL4-DBD plasmide were applied in each transfection mix. Transfection was carried out for 4 h with Lipofectamine 2000 Transfection Reagent (Invitrogen) in Opti-MEM medium (Invitrogen). Ligand treatment was performed at different concentrations for 24 h. For lysis and detection dual-luciferase reporter gene assay system (Promega) and POLARstar Omega (BMG LABTECH) were used.

In series [2] the test system is THP-1 macrophages. Nature of the series: CellTiter-Glo viability assay in THP-1 macrophages. Format: cell-based, human. As to the method:
(§1) For generating macrophages differentiation was induced by 10^-8 M Phorbol 12-myristate 13-acetate (PMA) (Sigma-Aldrich) for 48 h. Ligand treatment of macrophages was performed for further 24 h. To induce foam cell formation macrophages were treated for additional 48 h with 100 µg/mL modified human oxidized low density lipoprotein (oxLDL) obtained from Source BioScience (RP-048). Ligand treatment was performed simultaneously with foam cell formation. Cholesterol loading and treatment was controlled with Oil Red O staining (Alfa Aeser). To investigate ligand induced effects on cell proliferation of THP-1 macrophages CellTiter-Glo Luminescent Cell Viability Assay (Promega) was utilized.

The subject of series [3] is THP-1 macrophages. Nature of the series: qPCR gene expression of LXRα target genes in THP-1 macrophages. Format: cell-based, human. As to the method: as §1
(§2) Total RNA isolation and purification was performed by using the RNeasy Mini Kit (QIAGEN) and RNase-Free DNase Set (QIAGEN). cDNA was generated by reverse transcription using the High Capacity cDNA Reverse Transcription Kit (Applied Biosystems). Gene expression was quantified using the SYBR Green PCR Master Mix (Applied Biosystems) and ABI 7900HT Fast Real Time PCR System (Applied Biosystems). In each reaction 0.8 ng/µL cDNA and 0.2 µM primers were used. Gene expression was calculated with the ΔΔCt-method. β-Actin was used for normalisation.

The subject of series [4] is foam cells. Nature of the series: qPCR gene expression of LXRα target genes in foam cells. Format: cell-based, human. The note with it: 10 µM. On the procedure: as §1, §2
In series [5] the test system is foam cells. Description: siRNA-mediated LXRα/β knockdown in foam cells with qPCR. The note with it: 10 µM ligand for 24 h. Format: cell-based, human. As to the method: Target specificity of ligand-dependent gene expression effects was investigated in siRNA-mediated LXRα and β-knockdown foam cells with subsequent qPCR or microarray analysis. Therefore, 2 x 10^5 THP-1 cells/well were differentiated in 24-well plate and induced to foam cells prior to knockdown as described above. Foam cells were transfected using TransIT-TKO transfection reagent (Mirus Bio), for combined knockdown with 15 nM LXRα Silencer Validated siRNA (Ambion, ID 5458) and 15 nM LXRβ Silencer Select Validated siRNA (Ambion, ID s14684) and with 30 nM LXRα or LXRβ for individual knockdowns, respectively. As control we used 30 nM Silencer Select Negative Control #1 (Ambion). Transfection was carried out for 48 h and followed by treatment with 10 µM ligand or vehicle control for 24 h.
as §2
On the technique in general: In qPCR the cycle at which signal appears reflects the starting amount.

For series [6], the system named is foam cells. Nature of the series: Western blot of LXRα and APOE content in foam cells. It counts as cell-based, human. The note with it: densitometry. As to the method: Whole cell extracts were harvested from three biological replicates and denaturized for SDS-PAGE (NuPAGE Novex 4-12% Bis-Tris Gels). Proteins were blotted on nitrocellulose Hybond ECL membrane and incubated with strictly validated published antibodies against LXRα (Abcam, ab 41902), APOE (Abcam ab1906), and as housekeeping protein control β-Actin (Santa Cruz Biotechnology, sc-47778, C4). Secondary antibodies were HRP labeled anti-mouse and anti-rabbit (Santa Cruz Biotechnology). After detection with Western Lightning Plus-ECL solution membranes were stripped with Restore Plus Western Blot Stripping Buffer. Densitometry was performed in ImageQuant TL (GE Healthcare). This tool measures quantitatively the optical density and provides more accurate data than simple eye-observations. The calculation of log (protein of interest/ β-Actin) corrects data for loading imbalances.
For orientation: Immunoblotting shows a protein as a band on a membrane.

Series [7] has as its system foam cells. Description: cholesterol content in foam cells (Amplex Red Cholesterol Assay). Format: cell-based, human. The note with it: 10 µM, 48 h. As to the method:
(§3) THP-1 monocytes were plated out into 24-well plates (Nunc) at a density of 2 x 10^5 cells/well. After differentiation and treatment cells were lysed with 100 µL lysis buffer (PBS, 0.25 M NaCl, 1% Triton X-100). Total and free cholesterol were determined using the colorimetric enzymatic Amplex Red Cholesterol Assay Kit (Invitrogen). Triglycerides were quantified by Triglyceride Assay Kit (BioVision). For normalisation protein content was determined with Pierce 660 nm Protein Assay Reagent (Thermo Scientific).

Series [8] deals with foam cells. Nature of the series: triglyceride content in foam cells (Triglyceride Assay Kit). It counts as cell-based, human. Particulars: 10 µM, 48 h. As to the method:
as §3

SMILES strings stand for the structures. pEC50: −log10 of the molar value. Entries after “also recorded” stand apart in the source; their conditions may differ. Like-named read-outs stand apart in the source and are kept apart here.

For the compound `C(=C\c1ccc(OCC2CO2)cc1)/c1ccccc1` (stereo not drawn) [compound 1, 2-[[4-[(E)-styryl]phenoxy]-methyl]oxirane], the pEC50 in series [1] (+DMSO, LXRα reporter gene activation) is 7.46. The compound also registered an Efficacy in series [1] (+DMSO, reporter gene transcription vs. T09) of 6%. In series [1] (reporter-gene assays with LXRα and LXRβ LBD), the “specificity LXRα vs. LXRβ” value was “characteristic specificity for LXRα”. Moreover, the “no cytotoxic effects / no reduction of cellular viability up to” value was “up to 50 µM” in the series with THP-1 macrophages [2] and “up to 25 µM” with THP-1 macrophages [2] (listed as Compound 1). The “expression of LXRα target genes (LXRα, SREBF1, ABCA1, APOE)” value is “only marginally activated LXR-target genes in macrophages” in the series with THP-1 macrophages [3] (10 µM) and “strongly in foam cells; also recorded: potent target gene expression similar to T09; also recorded: up-regulation of SREBF1 mRNA” with foam cells [4]. For the same compound, in the series with THP-1 macrophages [3] (in the presence of 1 µM T09), the ABCA1 expression entry is listed as “additive effects”. The “gene expression of LXRα and ABCA1 after LXRα/β knockdown” value with foam cells [5] is reported as “higher dependency on the LXRα subtype”. Also, the “protein expression levels of LXRα target genes” value in the series on foam cells [6] is on record as “increased protein expression levels of LXRα target genes”. The “total and esterified cholesterol content” value with foam cells [7] was “significant reduction of total and esterified cholesterol content”. The triglyceride levels result in the series on foam cells [8] is given as “triglyceride levels were not increased”.

As usually defined, the pEC50 is −log10 of the EC50, conventionally taken in molar units. The low end stands for a large EC50, the high end for a small EC50.
